The results in this text go back to patent US11648258B2, “Method and compounds for inhibiting the MCM complex and their application in cancer treatment” (priority 2012, dated 2023).

The test deals with cancer cells (HeLa, HepG2). The test can be described thus: Flow cytometry / Annexin V staining (cell cycle, apoptosis) in cancer cells. It counts as cell-based, human. As for the experimental part: Both floating and attached cells were collected and washed once with PBS. Cells were fixed in 70% ethanol for 1 hr to overnight at −20° C., washed thoroughly with PBS, and then stained in 50 μg/ml RNase A, 0.1% Triton X-100, 0.1 mM EDTA (pH 7.4), and 50 μg/ml propidium iodide for 30 min at 4° C. Samples were analyzed with the FACSort instrument (Becton Dickinson).
Moreover, inhibition of DNA replication and subsequent induction of apoptosis by 17beta-Deacetyltanghinin could be shown by flow cytometry. In FIG. 7. Hela cells were blocked at M phase by Nocodazole (Noc.; FIG. 7A), the G1/S transition by mimosine (MMS; FIG. 7B), or at early S phase by Hydroxyurea (HU; FIG. 7C) and then released into fresh medium in the presence of 17beta-Deacetyltanghinin (DAT). The cells at different time points after release were analyzed by follow cytometry. Ayn. means asynchronous cells. Untreated cells and cells treated with the solvent DMSO could complete M, G1 and S phases after release (FIG. 7A). […] Similarly, cells released from the Mimosine (MMS) arrest (at the G1/S transition; FIG. 7B) or Hydroxyurea (HU) arrest (in early S phase; FIG. 7C) could not finish S phase in the presence of 17beta-Deacetyltanghinin.
In FIG. 8A, flow cytometry was performed to analyze the DNA contents in HepG2 and L-02 cells treated with 17beta-Deacetyltanghinin at various concentrations for 24 hrs. In FIG. 8B, Hela cells were treated with 17beta-Deacetyltanghinin for 24 hrs and labeled with Annexin V-Cy3 (Arm. Cy3) for 20 min. Mitoxantrone (MTX), a clinical anticancer drug that can induce apoptosis in cancer cells, was used as a positive control.
For orientation: In flow cytometry, cells or beads pass a laser one at a time.

Regarding `COC1C(O)[C@H](O[C@H]2CC[C@]3(C)C4CC[C@]5(C)[C@@H](C6=CC(=O)OC6)CC[C@]5(O)[C@@]45O[C@H]5C[C@@H]3C2)OC(C)[C@@H]1O` (stereo partly drawn) [17beta-Deacetyltanghinin, 3β-O-(3-O-methyl-6-deoxy-α-L-glucopyranosyl)-7β,8β-epoxy-14β-hydroxy-card-20(22)-enolide], the “Annexin V staining (apoptosis)” value (HeLa cells, 24 hrs, Annexin V-Cy3) is given as “could be stained by Annexin V”. The “cell cycle progression after release from Nocodazole arrest” value (HeLa cells, flow cytometry) is recorded as “could complete mitosis but could not enter S phase”. For the same compound, the “induction of apoptosis (sub-G1 population, flow cytometry)” value (cancer cells) is on record as “induced apoptotic cell death in cancer cells”.
